Measurements reported in patent publication US8017612B2, “Piperazine compound and use thereof as a HCV polymerase inhibitor” (priority 2006, dated 2011).

Assays:
[1] = target: T1, HCV polymerase (NS5B) type 1a (Hepatitis C virus genotype 1a, UniProt P26664); assay: Assay of enzyme (HCV polymerase) inhibitory activity, type 1a enzyme; assay type: biochemical, HCV type 1a (cloned from the blood of patients)
T1 construct: made in house; host or cells: Escherichia coli (by the 'similar method' of the 1b enzyme)
Outline: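 His-tagged NS5B, C-terminal 47 residues deleted, type 1a at 1.5 μg/ml, with 5 μg/ml HCV 3′UTR substrate RNA, 50 μM ATP/GTP/CTP, 2 μM UTP plus [3H]UTP, pH 7.5 Tris, 5 mM MgCl2; 60 min at 25° C. TCA-precipitated RNA counted by scintillation; IC50 from radioactivity with vs. without compound.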

[2] = target: T2, HCV polymerase (NS5B) type 1b (Hepatitis C virus genotype 1b, UniProt P26663); assay: Assay of enzyme (HCV polymerase) inhibitory activity, type 1b enzyme; assay type: biochemical, HCV BK strain (type 1b)
T2 construct: a region encoding NS5B (J Virol 1991 March, 65(3), 1105-13, 544 amino acids after deletion of 47 amino acids on the C-terminal); 6xHis (C); made in house; host or cells: Escherichia coli
Outline: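 His-tagged, C-terminally truncated NS5B (BK strain, 1b; 0.5 μg/ml) incubated with compound 60 min at 25 °C on 3′UTR-derived substrate RNA (5 μg/ml), 50 μM ATP/GTP/CTP, 2 μM UTP plus [3H]UTP, pH 7.5. Acid-precipitated RNA counted; IC50 from radioactivity with and without compound.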

[3] = HCV polymerase inhibitory activity (IC50), 1a, type 1a enzyme 1.5 μg/ml, 25° C., 60 min
[4] = HCV polymerase inhibitory activity (IC50), 1b, type 1b enzyme 0.5 μg/ml, 25° C., 60 min
[5] = HCV polymerase inhibitory activity IC50, 1a, type 1a enzyme
[6] = HCV polymerase inhibitory activity IC50, 1b, type 1b enzyme

## CC(=O)N1CCN(S(=O)(=O)c2ccc(OC(F)(F)F)c(CCCC(=O)O)c2)[C@@H](C(=O)NCc2ccc(C(C)C)cc2)C1 [Example 11, 4-{5-[(R)-4-acetyl-2-(4-isopropyl-benzylcarbamoyl)-piperazine-1-sulfonyl]-2-trifluoromethoxy-phenyl}-butyric acid]
[1]; [3]
  IC50: < 0.1 µM
[2]; [4]
  IC50: < 0.1 µM

## CC(C)c1ccc(CNC(=O)[C@H]2CN(C(=O)Cn3nccn3)CCN2S(=O)(=O)c2ccc(C(F)(F)F)cc2)cc1 [Example 242, (R)-4-(2-[1,2,3]triazol-2-yl-acetyl)-1-(4-trifluoromethyl-benzenesulfonyl)-piperazine-2-carboxylic acid 4-isopropyl-benzylamide]
[1]; [3]
  IC50: 0.1 to 1 µM
[2]; [4]
  IC50: 0.1 to 1 µM

## O=C(NCCCc1ccccc1)[C@H]1CN(c2cnc3cncnc3n2)CCN1S(=O)(=O)c1ccc(OC(F)(F)F)cc1 [Example 811, (R)-4-pteridin-7-yl-1-(4-trifluoromethoxy-benzenesulfonyl)-piperazine-2-carboxylic acid (3-phenyl-propyl)-amide]
[1]; [5]
  IC50: 0.1 to 1 µM
[2]; [6]
  IC50: 0.1 to 1 µM

## CCCc1ccc(CNC(=O)[C@H]2CN(C(=O)N(C)c3ccncc3)CCN2S(=O)(=O)c2ccc(OC(F)(F)F)cc2)cc1 [Example 463, (R)-4-(4-trifluoromethoxy-benzenesulfonyl)-piperazine-1,3-dicarboxylic acid 1-(methyl-pyridin-4-yl-amide) 3-(4-propyl-benzylamide)]
[1]; [3]
  IC50: > 1 µM
[2]; [4]
  IC50: > 1 µM

## CC(=O)N1CCN(S(=O)(=O)c2ccc(C(C)C)cc2)[C@@H](C(=O)NCc2ccc(C3CC3)cc2)C1 [Example 280, 4-acetyl-1-(4-isopropyl-benzenesulfonyl)-piperazine-2-carboxylic acid 4-cyclopropyl-benzylamide]
[1]; [3]
  IC50: 0.1 to 1 µM
[2]; [4]
  IC50: 0.1 to 1 µM

## O=C(NCc1ccc(OC(F)F)cc1)[C@H]1CN(c2nn3c(C(F)(F)F)cc(=O)nc3s2)CCN1S(=O)(=O)c1ccc(OC(F)(F)F)cc1 [Example 1066, (R)-4-(7-oxo-5-trifluoromethyl-7H-[1,3,4]thiadiazolo[3,2-a]pyrimidin-2-yl)-1-(4-trifluoromethoxy-benzenesulfonyl)-piperazine-2-carboxylic acid 4-difluoromethoxy-benzylamide]
[1]; [5]
  IC50: < 0.1 µM
[2]; [6]
  IC50: < 0.1 µM

## CCCOc1ccc(S(=O)(=O)N2CCN(C(C)=O)C[C@@H]2C(=O)NCc2ccc(C(C)C)cc2)cc1 [Example 193, (R)-4-acetyl-1-(4-propoxy-benzenesulfonyl)-piperazine-2-carboxylic acid 4-isopropyl-benzylamide]
[1]; [3]
  IC50: 0.1 to 1 µM
[2]; [4]
  IC50: 0.1 to 1 µM

## CC(=O)N1CCN(S(=O)(=O)c2ccc(C(C)C)cc2)[C@@H](C(=O)NCc2ccc(C(F)(F)F)cc2)C1 [Example 18, (R)-4-acetyl-1-(4-isopropyl-benzenesulfonyl)-piperazine-2-carboxylic acid 4-trifluoromethyl-benzylamide]
[1]; [3]
  IC50: 0.1 to 1 µM
[2]; [4]
  IC50: 0.1 to 1 µM

## O=C(NCc1ccc(OC(F)(F)F)cc1)[C@H]1CN(c2nc3nc(O)ncc3s2)CCN1S(=O)(=O)c1ccc(OC(F)(F)F)cc1 [Example 878, (R)-4-(5-hydroxy-thiazolo[4,5-d]pyrimidin-2-yl)-1-(4-trifluoromethoxy-benzenesulfonyl)-piperazine-2-carboxylic acid 4-trifluoromethoxy-benzylamide]
[1]; [5]
  IC50: < 0.1 µM
[2]; [6]
  IC50: < 0.1 µM

## CC(=O)N1CCN(S(=O)(=O)c2ccc(C(C)C)cc2)[C@@H](C(=O)NCc2ccc(C(C)(C)CO)cc2)C1 [Example 169, (R)-4-acetyl-1-(4-isopropyl-benzenesulfonyl)-piperazine-2-carboxylic acid 4-(2-hydroxy-1,1-dimethyl-ethyl)-benzylamide]
[1]; [3]
  IC50: > 1 µM
[2]; [4]
  IC50: > 1 µM

## CC(=O)N1CCN(S(=O)(=O)c2ccc(OC(F)(F)F)cc2)[C@@H](C(=O)NCCc2ccccc2O)C1 [Example 682, (R)-4-acetyl-1-(4-trifluoromethoxy-benzenesulfonyl)-piperazine-2-carboxylic acid [2-(2-hydroxy-phenyl)-ethyl]-amide]
[1]; [5]
  IC50: > 1 µM
[2]; [6]
  IC50: > 1 µM

## CC(=O)N1CCN(S(=O)(=O)c2ccc(C(C)C)cc2)C(C(=O)NCCc2ccccc2)C1 (centres unmarked) [Example 118, 4-acetyl-1-(4-isopropyl-benzenesulfonyl)-piperazine-2-carboxylic acid phenethyl-amide]
[1]; [3]
  IC50: > 1 µM
[2]; [4]
  IC50: > 1 µM

## CCCc1ccc(CNC(=O)[C@H]2CN(c3nc4c(C(=O)O)cccc4s3)CCN2S(=O)(=O)c2ccc(CC)cc2)cc1 [Example 818, 2-[(R)-4-(4-ethyl-benzenesulfonyl)-3-(4-propyl-benzylcarbamoyl)-piperazin-1-yl]-benzothiazole-4-carboxylic acid]
[1]; [5]
  IC50: < 0.1 µM
[2]; [6]
  IC50: < 0.1 µM

## CCC(F)(F)c1ccc(CNC(=O)[C@H]2CN(C(=O)Nn3cnnc3)CCN2S(=O)(=O)c2ccc(OC(F)(F)F)cc2)cc1 [Example 539, (R)-4-(4-trifluoromethoxy-benzenesulfonyl)-piperazine-1,3-dicarboxylic acid 3-[4-(1,1-difluoro-propyl)-benzylamide] 1-[1,2,4]triazol-4-ylamide]
[1]; [3]
  IC50: 0.1 to 1 µM
[2]; [4]
  IC50: 0.1 to 1 µM

## O=C(NCc1ccc2ccccc2c1)[C@H]1CN(c2nc3cn[nH]c(=O)c3s2)CCN1S(=O)(=O)c1ccc(OC(F)(F)F)cc1 [Example 901, (R)-4-(7-oxo-6,7-dihydro-thiazolo[4,5-d]pyridazin-2-yl)-1-(4-trifluoromethoxy-benzenesulfonyl)-piperazine-2-carboxylic acid (naphthalen-2-ylmethyl)-amide]
[1]; [5]
  IC50: < 0.1 µM
[2]; [6]
  IC50: < 0.1 µM

## CCC(F)(F)c1ccc(CNC(=O)[C@H]2CN(C(=O)Cn3nnc(-c4ccccc4)n3)CCN2S(=O)(=O)c2ccc(OC(F)(F)F)cc2)cc1 [Example 479, (R)-4-[2-(5-phenyl-tetrazol-2-yl)-acetyl]-1-(4-trifluoromethoxy-benzenesulfonyl)-piperazine-2-carboxylic acid 4-(1,1-difluoro-propyl)-benzylamide]
[1]; [3]
  IC50: < 0.1 µM
[2]; [4]
  IC50: < 0.1 µM

## Cc1nc(N2CCN(S(=O)(=O)c3ccc(OC(F)(F)F)cc3)[C@@H](C(=O)NCc3ccc(C(C)C)cc3)C2)sc1C(=O)N[C@@H](C)C(=O)O [Example 370, (S)-2-({2-[(R)-3-(4-isopropyl-benzylcarbamoyl)-4-(4-trifluoromethoxy-benzenesulfonyl)-piperazin-1-yl]-4-methyl-thiazole-5-carbonyl}-amino)-propionic acid]
[1]; [3]
  IC50: 0.1 to 1 µM
[2]; [4]
  IC50: < 0.1 µM

## CCc1ncc2sc(N3CCN(S(=O)(=O)c4ccc(C(F)(F)F)cc4)[C@@H](C(=O)NCc4ccc(OC(F)(F)F)cc4)C3)nc2n1 [Example 950, (R)-4-(5-ethyl-thiazolo[4,5-d]pyrimidin-2-yl)-1-(4-trifluoromethyl-benzenesulfonyl)-piperazine-2-carboxylic acid 4-trifluoromethoxy-benzylamide]
[1]; [5]
  IC50: < 0.1 µM
[2]; [6]
  IC50: < 0.1 µM

## COCC1(c2ccc(CNC(=O)[C@H]3CN(c4nc5cn[nH]c(=O)c5s4)CCN3S(=O)(=O)c3ccc(OC(F)(F)F)cc3)cc2)CC1 [Example 882, (R)-4-(7-oxo-6,7-dihydro-thiazolo[4,5-d]pyridazin-2-yl)-1-(4-trifluoromethoxy-benzenesulfonyl)-piperazine-2-carboxylic acid 4-(1-methoxymethyl-cyclopropyl)-benzylamide]
[1]; [5]
  IC50: 0.1 to 1 µM
[2]; [6]
  IC50: < 0.1 µM
